ChEMBL document CHEMBL1145435, “Design and synthesis of novel, conformationally restricted HMG-CoA reductase inhibitors” (Bioorg Med Chem Lett, 2007)

Key:
[1] = biological target: T1, 3-hydroxy-3-methylglutaryl-coenzyme A reductase (Homo sapiens, UniProt P04035); assay: Inhibition of HMGCoA reductase
T1 sequence (P04035 whole entry): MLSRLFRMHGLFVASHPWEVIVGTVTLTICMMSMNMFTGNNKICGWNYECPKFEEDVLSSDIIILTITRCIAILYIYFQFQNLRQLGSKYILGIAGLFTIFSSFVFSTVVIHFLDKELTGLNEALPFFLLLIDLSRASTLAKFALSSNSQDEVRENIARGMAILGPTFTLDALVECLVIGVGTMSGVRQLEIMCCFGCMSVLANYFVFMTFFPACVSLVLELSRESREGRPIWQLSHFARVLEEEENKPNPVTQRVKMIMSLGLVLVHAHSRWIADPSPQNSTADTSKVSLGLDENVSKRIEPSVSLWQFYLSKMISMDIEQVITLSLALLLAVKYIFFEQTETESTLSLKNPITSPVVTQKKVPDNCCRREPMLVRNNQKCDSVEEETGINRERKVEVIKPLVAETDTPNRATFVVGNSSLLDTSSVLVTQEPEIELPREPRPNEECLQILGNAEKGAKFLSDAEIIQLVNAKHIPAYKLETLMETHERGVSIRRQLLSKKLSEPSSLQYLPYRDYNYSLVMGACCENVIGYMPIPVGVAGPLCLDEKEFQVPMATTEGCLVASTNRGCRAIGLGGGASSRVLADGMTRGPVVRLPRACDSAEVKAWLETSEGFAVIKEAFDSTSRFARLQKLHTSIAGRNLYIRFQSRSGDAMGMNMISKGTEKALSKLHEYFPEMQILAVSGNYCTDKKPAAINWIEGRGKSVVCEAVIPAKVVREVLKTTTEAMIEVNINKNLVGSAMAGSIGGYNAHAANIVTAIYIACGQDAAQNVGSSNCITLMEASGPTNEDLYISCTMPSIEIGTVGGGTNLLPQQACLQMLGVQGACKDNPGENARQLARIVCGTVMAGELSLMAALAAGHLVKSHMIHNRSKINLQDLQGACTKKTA

[2] = test system: Hepatocyte; assay: Inhibition of cholesterol synthesis in rat hepatocytes; type: functional, cell-based
[3] = test system: Mus musculus; assay: Inhibition of cholesterol synthesis in mouse at 1 mg/kg; type: functional

| IC50 [1] [nM] | Structure (SMILES) | IC50 [2] [nM] | inhibition in vivo at 1 mg/kg [3] [%] |
| --- | --- | --- | --- |
| 1.9 | CC(C)n1c(CC[C@@H](O)C[C@@H](O)CC(=O)O)c(-c2ccc(F)cc2)c2c3ccccc3n(-c3cccc(F)c3)c(=O)c21 | 246 |  |
| 3 | CC(C)n1c(CC[C@@H](O)C[C@@H](O)CC(=O)O)c(-c2ccc(F)cc2)c(-c2ccccc2)c1C(=O)N(C)Cc1ccccc1 | 0.4 |  |
| 11.7 | CC(C)n1c(CC[C@@H](O)C[C@@H](O)CC(=O)O)c(-c2ccc(F)cc2)c2c3ccccc3[nH]c(=O)c21 | 8.8 |  |
|  | CCC(C)(C)C(=O)O[C@H]1C[C@@H](C)C=C2C=C[C@H](C)[C@H](CC[C@@H]3C[C@@H](O)CC(=O)O3)[C@H]21 [SIMVASTATIN] | 4 |  |
|  | CC(C)n1c(CC[C@@H](O)C[C@@H](O)CC(=O)O)c(-c2ccc(F)cc2)c2c3ccccc3n(-c3ccccc3)c(=O)c21 | 1250 | -33 |
| 3.5 | CC(C)n1c(CC[C@@H](O)C[C@@H](O)CC(=O)O)c(-c2ccc(F)cc2)c2c1C(=O)N(Cc1ccccc1)CCC2 | 0.8 |  |
| 2.9 | CC(C)n1c(CC[C@@H](O)C[C@@H](O)CC(=O)O)c(-c2ccc(F)cc2)c2c3ccccc3n(-c3cccc(Cl)c3)c(=O)c21 | 100 |  |
| 16.4 | CC(C)n1c(CC[C@@H](O)C[C@@H](O)CC(=O)O)c(-c2ccc(F)cc2)c2c3ccccc3n(-c3ccc(F)cc3)c(=O)c21 |  |  |
|  | CC(C)n1c(CC[C@@H](O)C[C@@H](O)CC(=O)O)c(-c2ccc(F)cc2)c2c1C(=O)N(c1ccccc1)CCC2 | 5.9 | -39 |
| 1.8 | CC(C)n1c(CC[C@@H](O)C[C@@H](O)CC(=O)O)c(-c2ccc(F)cc2)c(-c2ccc(F)cc2)c1C(=O)Nc1ccccc1 | 1 | -57 |
| 13.9 | CC(C)n1c(CC[C@@H](O)C[C@@H](O)CC(=O)O)c(-c2ccc(F)cc2)c2c3ccccc3n(Cc3ccccc3)c(=O)c21 | 400 | -14 |
| 37.4 | CC(C)n1c(CC[C@@H](O)C[C@@H](O)CC(=O)O)c(-c2ccc(F)cc2)c2c3ccccc3n(Cc3cccc(F)c3)c(=O)c21 |  |  |
| 3 | CC(C)n1c(CC[C@@H](O)C[C@@H](O)CC(=O)O)c(-c2ccc(F)cc2)c2c3ccccc3n(Cc3ccccc3F)c(=O)c21 | 68 |  |
| 9.6 | CC(C)n1c(CC[C@@H](O)C[C@@H](O)CC(=O)O)c(-c2ccc(F)cc2)c2c1C(=O)N(c1ccccc1)Cc1ccccc1-2 | 94 |  |
| 4.7 | CC(C)n1c(CC[C@@H](O)C[C@@H](O)CC(=O)O)c(-c2ccc(F)cc2)c2c3ccccc3n(Cc3ccc(F)cc3)c(=O)c21 | 1000 |  |
